≈ marks a conversion by molar mass, not a printed value.
Experiments:
[1] = tested on: Escherichia coli; test: Antimicrobial activity against Escherichia coli expressing beta-lactamase NDM-1 by CLSI broth microdilution method; type: functional
[2] = tested on: Escherichia coli; test: microbe, parasite or virus in culture
Description: Antimicrobial activity against Escherichia coli expressing beta-lactamase TEM-10 by CLSI broth microdilution method

[3] = tested on: Escherichia coli; test: microbe, parasite or virus in culture; remark: listed apart in the source
Description: Antimicrobial activity against Escherichia coli expressing beta-lactamase AmpC by CLSI broth microdilution method

[4] = tested on: Escherichia coli; test: microbe, parasite or virus in culture; remark: listed apart in the source
Description: Antimicrobial activity against Escherichia coli expressing beta-lactamase SHV-12 by CLSI broth microdilution method

[5] = tested on: Pseudomonas aeruginosa; test: Antimicrobial activity against Pseudomonas aeruginosa ATCC 27853 by CLSI broth microdilution method; type: functional
[6] = tested on: Escherichia coli; test: microbe, parasite or virus in culture; remark: listed apart in the source
Description: Antimicrobial activity against wild type Escherichia coli by CLSI broth microdilution method

[7] = tested on: Escherichia coli; test: Antimicrobial activity against Escherichia coli expressing beta-lactamase KPC-2 by CLSI broth microdilution method; type: functional
[8] = tested on: Pseudomonas aeruginosa; test: Antimicrobial activity against Pseudomonas aeruginosa expressing delta-mexB/mexXY/delta-ampDh2/ delta-ampD by CLSI broth microdilution method; type: functional
[9] = Chemical stability in pH 7.4 potassium phosphate buffer assessed as half life for compound hydrolysis at 37 degC by UPLC and mass spectrometry; type: physicochemical
[10] = tested on: Pseudomonas aeruginosa; test: Antimicrobial activity against Pseudomonas aeruginosa expressing delta-mexB/delta-mexXY/delta-mexCD and delta-ampC mutant by CLSI broth microdilution method; type: functional
[11] = tested on: Pseudomonas aeruginosa; test: Antimicrobial activity against Pseudomonas aeruginosa expressing nalB/delta-mexXY/delta-mexCDoprJ/delta-ampC by CLSI broth microdilution method; type: functional
[12] = tested on: Escherichia coli; test: microbe, parasite or virus in culture; remark: listed apart in the source
Description: Antimicrobial activity against Escherichia coli expressing beta-lactamase CMY-2 by CLSI broth microdilution method

[13] = tested on: Escherichia coli; test: microbe, parasite or virus in culture; remark: listed apart in the source
Description: Antimicrobial activity against Escherichia coli expressing beta-lactamase CTXM-15 by CLSI broth microdilution method

[14] = tested on: Escherichia coli; test: microbe, parasite or virus in culture; remark: listed apart in the source
Description: Antimicrobial activity against Escherichia coli expressing beta-lactamase IMI-1 by CLSI broth microdilution method

[15] = tested on: Escherichia coli; test: microbe, parasite or virus in culture; remark: listed apart in the source
Description: Antimicrobial activity against Escherichia coli expressing beta-lactamase GES-1 by CLSI broth microdilution method

[16] = tested on: Escherichia coli; test: microbe, parasite or virus in culture; remark: listed apart in the source
Description: Antimicrobial activity against Escherichia coli expressing beta-lactamase PER-4 by CLSI broth microdilution method

[17] = tested on: Escherichia coli; test: microbe, parasite or virus in culture; remark: listed apart in the source
Description: Antimicrobial activity against Escherichia coli expressing beta-lactamase PER-2 by CLSI broth microdilution method

[18] = tested on: Escherichia coli; test: microbe, parasite or virus in culture; remark: listed apart in the source
Description: Antimicrobial activity against Escherichia coli expressing beta-lactamase PER-1 by CLSI broth microdilution method

[19] = tested on: Escherichia coli; test: microbe, parasite or virus in culture; remark: listed apart in the source
Description: Antimicrobial activity against Escherichia coli expressing beta-lactamase Oxa-146 by CLSI broth microdilution method

[20] = tested on: Escherichia coli; test: microbe, parasite or virus in culture; remark: listed apart in the source
Description: Antimicrobial activity against Escherichia coli expressing beta-lactamase MIR-1 by CLSI broth microdilution method

[21] = tested on: Escherichia coli; test: microbe, parasite or virus in culture; remark: listed apart in the source
Description: Antimicrobial activity against Escherichia coli expressing beta-lactamase SME-1 by CLSI broth microdilution method

[22] = tested on: Escherichia coli; test: microbe, parasite or virus in culture; remark: listed apart in the source
Description: Antimicrobial activity against Escherichia coli expressing beta-lactamase TEM-24 by CLSI broth microdilution method

[23] = tested on: Escherichia coli; test: microbe, parasite or virus in culture; remark: listed apart in the source
Description: Antimicrobial activity against Escherichia coli expressing beta-lactamase TEM-121 by CLSI broth microdilution method

[24] = tested on: Escherichia coli; test: microbe, parasite or virus in culture; remark: listed apart in the source
Description: Antimicrobial activity against Escherichia coli expressing beta-lactamase DHA by CLSI broth microdilution method

[25] = tested on: Escherichia coli; test: microbe, parasite or virus in culture; remark: listed apart in the source
Description: Antimicrobial activity against Escherichia coli expressing beta-lactamase Oxa-48 by CLSI broth microdilution method

[26] = tested on: Escherichia coli; test: microbe, parasite or virus in culture; remark: listed apart in the source
Description: Antimicrobial activity against Escherichia coli expressing beta-lactamase Oxa-10 by CLSI broth microdilution method

[27] = tested on: Escherichia coli; test: microbe, parasite or virus in culture; remark: listed apart in the source
Description: Antimicrobial activity against Escherichia coli expressing beta-lactamase SPM-1 by CLSI broth microdilution method

[28] = tested on: Escherichia coli; test: microbe, parasite or virus in culture; remark: listed apart in the source
Description: Antimicrobial activity against Escherichia coli expressing beta-lactamase KPC-8 by CLSI broth microdilution method

[29] = tested on: Escherichia coli; test: microbe, parasite or virus in culture; remark: listed apart in the source
Description: Antimicrobial activity against Escherichia coli expressing beta-lactamase Oxa-160 by CLSI broth microdilution method

[30] = tested on: Escherichia coli; test: microbe, parasite or virus in culture; remark: listed apart in the source
Description: Antimicrobial activity against Escherichia coli expressing beta-lactamase Oxa-51 by CLSI broth microdilution method

[31] = tested on: Escherichia coli; test: microbe, parasite or virus in culture; remark: listed apart in the source
Description: Antimicrobial activity against Escherichia coli expressing beta-lactamase IMP-1 by CLSI broth microdilution method

[32] = tested on: Escherichia coli; test: microbe, parasite or virus in culture; remark: listed apart in the source
Description: Antimicrobial activity against Escherichia coli expressing beta-lactamase NMC-A by CLSI broth microdilution method

[33] = tested on: Escherichia coli; test: microbe, parasite or virus in culture; remark: listed apart in the source
Description: Antimicrobial activity against Escherichia coli expressing beta-lactamase CTXM-3 by CLSI broth microdilution method

[34] = tested on: Escherichia coli; test: microbe, parasite or virus in culture; remark: listed apart in the source
Description: Antimicrobial activity against Escherichia coli expressing beta-lactamase Oxa-181 by CLSI broth microdilution method

[35] = tested on: Escherichia coli; test: microbe, parasite or virus in culture; remark: listed apart in the source
Description: Antimicrobial activity against Escherichia coli expressing beta-lactamase GIM-1 by CLSI broth microdilution method

[36] = tested on: Escherichia coli; test: microbe, parasite or virus in culture; remark: listed apart in the source
Description: Antimicrobial activity against Escherichia coli expressing beta-lactamase Oxa-23 by CLSI broth microdilution method

[37] = tested on: Escherichia coli; test: Antimicrobial activity against Escherichia coli expressing beta-lactamase TEM-1 by CLSI broth microdilution method; type: functional
[38] = tested on: Escherichia coli; test: microbe, parasite or virus in culture; remark: listed apart in the source
Description: Antimicrobial activity against Escherichia coli expressing beta-lactamase VIM-1 by CLSI broth microdilution method

[39] = tested on: Escherichia coli; test: microbe, parasite or virus in culture; remark: listed apart in the source
Description: Antimicrobial activity against Escherichia coli expressing beta-lactamase VEB-7 by CLSI broth microdilution method

[40] = tested on: Escherichia coli; test: microbe, parasite or virus in culture; remark: listed apart in the source
Description: Antimicrobial activity against Escherichia coli expressing beta-lactamase VEB-4 by CLSI broth microdilution method

[41] = tested on: Escherichia coli; test: microbe, parasite or virus in culture; remark: listed apart in the source
Description: Antimicrobial activity against Escherichia coli expressing beta-lactamase KPC-4 by CLSI broth microdilution method

[42] = tested on: Escherichia coli; test: microbe, parasite or virus in culture; remark: listed apart in the source
Description: Antimicrobial activity against Escherichia coli expressing beta-lactamase Oxa-18 by CLSI broth microdilution method

[43] = tested on: Escherichia coli; test: microbe, parasite or virus in culture; remark: listed apart in the source
Description: Antimicrobial activity against Escherichia coli expressing beta-lactamase Oxa-225 by CLSI broth microdilution method

[44] = tested on: Escherichia coli; test: Antimicrobial activity against Escherichia coli expressing beta-lactamase NDM-5 by CLSI broth microdilution method; type: functional
[45] = tested on: Escherichia coli; test: microbe, parasite or virus in culture; remark: listed apart in the source
Description: Antimicrobial activity against Escherichia coli expressing beta-lactamase KPC-3 by CLSI broth microdilution method

[46] = tested on: Escherichia coli; test: microbe, parasite or virus in culture; remark: listed apart in the source
Description: Antimicrobial activity against Escherichia coli expressing beta-lactamase TEM-47 by CLSI broth microdilution method

[47] = tested on: Escherichia coli; test: microbe, parasite or virus in culture; remark: listed apart in the source
Description: Antimicrobial activity against Escherichia coli expressing beta-lactamase Oxa-40 by CLSI broth microdilution method

[48] = tested on: Escherichia coli; test: microbe, parasite or virus in culture; remark: listed apart in the source
Description: Antimicrobial activity against Escherichia coli expressing beta-lactamase P99 by CLSI broth microdilution method

[49] = tested on: Escherichia coli; test: microbe, parasite or virus in culture; remark: listed apart in the source
Description: Antimicrobial activity against Escherichia coli expressing beta-lactamase TEM-16 by CLSI broth microdilution method

[50] = tested on: Escherichia coli; test: Antimicrobial activity against Escherichia coli expressing beta-lactamase VEB-1 by CLSI broth microdilution method; type: functional

Nc1nc(/C(=N/OC2(C(=O)O)CC2)C(=O)N[C@@H]2C(=O)N(S(=O)(=O)O)[C@H]2CN2CCOC2=O)cs1 (stereo in doubt)
MIC [1]: 0.25 µg/mL (≈ 0.482 µM) | MIC [2]: 32 µg/mL (≈ 61.7 µM) | MIC [3]: 0.5 µg/mL (≈ 0.964 µM) | MIC [4]: 64 µg/mL (≈ 123 µM) | MIC [5]: > 64 µg/mL | MIC [6]: 0.25 µg/mL (≈ 0.482 µM) | MIC [7]: 0.5 µg/mL (≈ 0.964 µM) | MIC [8]: > 64 µg/mL | half-life [9]: 18.8 days | MIC [10]: 2 µg/mL (≈ 3.86 µM) | MIC [11]: > 64 µg/mL | MIC [12]: 2 µg/mL (≈ 3.86 µM) | MIC [13]: 0.5 µg/mL (≈ 0.964 µM)

CC(C)(O/N=C(\C(=O)N[C@@H]1C(=O)N2C(C(=O)[O-])=C(C[n+]3ccccc3)CS[C@H]12)c1csc(N)n1)C(=O)O [CEFTAZIDIME]
MIC [14]: 0.25 µg/mL (≈ 0.457 µM) | MIC [15]: 64 µg/mL (≈ 117 µM) | MIC [1]: > 64 µg/mL | MIC [2]: > 64 µg/mL | MIC [16]: > 64 µg/mL | MIC [17]: > 64 µg/mL | MIC [3]: 8 µg/mL (≈ 14.6 µM) | MIC [18]: > 64 µg/mL | MIC [19]: 8 µg/mL (≈ 14.6 µM) | MIC [20]: 8 µg/mL (≈ 14.6 µM) | MIC [21]: 0.5 µg/mL (≈ 0.915 µM) | MIC [22]: > 64 µg/mL | MIC [4]: > 64 µg/mL | MIC [23]: 64 µg/mL (≈ 117 µM) | MIC [24]: 16 µg/mL (≈ 29.3 µM) | MIC [6]: 0.125 µg/mL (≈ 0.229 µM) | MIC [25]: 0.25 µg/mL (≈ 0.457 µM) | MIC [26]: 0.125 µg/mL (≈ 0.229 µM) | MIC [27]: > 64 µg/mL | MIC [28]: > 64 µg/mL | MIC [29]: 0.5 µg/mL (≈ 0.915 µM) | MIC [30]: 0.125 µg/mL (≈ 0.229 µM) | MIC [7]: 8 µg/mL (≈ 14.6 µM) | MIC [31]: > 64 µg/mL | MIC [32]: 0.25 µg/mL (≈ 0.457 µM) | MIC [33]: 2 µg/mL (≈ 3.66 µM) | MIC [34]: 0.25 µg/mL (≈ 0.457 µM) | MIC [35]: 4 µg/mL (≈ 7.32 µM) | MIC [36]: 0.125 µg/mL (≈ 0.229 µM) | MIC [37]: 0.25 µg/mL (≈ 0.457 µM) | MIC [38]: > 64 µg/mL | MIC [39]: > 64 µg/mL | MIC [40]: > 64 µg/mL | MIC [41]: > 64 µg/mL | MIC [42]: > 64 µg/mL | MIC [43]: 1 µg/mL (≈ 1.83 µM) | MIC [44]: > 64 µg/mL | MIC [45]: 32 µg/mL (≈ 58.5 µM) | MIC [46]: 4 µg/mL (≈ 7.32 µM) | MIC [12]: 64 µg/mL (≈ 117 µM) | MIC [47]: 0.125 µg/mL (≈ 0.229 µM) | MIC [48]: 8 µg/mL (≈ 14.6 µM) | MIC [49]: 64 µg/mL (≈ 117 µM) | MIC [13]: 8 µg/mL (≈ 14.6 µM) | MIC [50]: > 64 µg/mL

CCN1CCN(C(=O)N[C@@H](C(=O)N[C@@H]2C(=O)N3[C@@H]2SC(C)(C)[C@@H]3C(=O)O)c2ccccc2)C(=O)C1=O [PIPERACILLIN]
MIC [14]: 64 µg/mL (≈ 124 µM) | MIC [15]: > 64 µg/mL | MIC [1]: > 64 µg/mL | MIC [2]: > 64 µg/mL | MIC [16]: 8 µg/mL (≈ 15.5 µM) | MIC [17]: > 64 µg/mL | MIC [3]: > 64 µg/mL | MIC [18]: 32 µg/mL (≈ 61.8 µM) | MIC [19]: > 64 µg/mL | MIC [20]: 8 µg/mL (≈ 15.5 µM) | MIC [21]: > 64 µg/mL | MIC [22]: 16 µg/mL (≈ 30.9 µM) | MIC [4]: > 64 µg/mL | MIC [23]: 64 µg/mL (≈ 124 µM) | MIC [24]: 64 µg/mL (≈ 124 µM) | MIC [6]: 4 µg/mL (≈ 7.73 µM) | MIC [25]: > 64 µg/mL | MIC [26]: > 64 µg/mL | MIC [27]: 64 µg/mL (≈ 124 µM) | MIC [28]: > 64 µg/mL | MIC [29]: 64 µg/mL (≈ 124 µM) | MIC [30]: 8 µg/mL (≈ 15.5 µM) | MIC [7]: > 64 µg/mL | MIC [31]: 16 µg/mL (≈ 30.9 µM) | MIC [32]: 64 µg/mL (≈ 124 µM) | MIC [33]: > 64 µg/mL | MIC [34]: > 64 µg/mL | MIC [35]: > 64 µg/mL | MIC [36]: > 64 µg/mL | MIC [37]: > 64 µg/mL | MIC [38]: > 64 µg/mL | MIC [39]: 32 µg/mL (≈ 61.8 µM) | MIC [40]: 8 µg/mL (≈ 15.5 µM) | MIC [41]: > 64 µg/mL | MIC [42]: > 64 µg/mL | MIC [43]: > 64 µg/mL | MIC [44]: > 64 µg/mL | MIC [45]: > 64 µg/mL | MIC [46]: 64 µg/mL (≈ 124 µM) | MIC [12]: 32 µg/mL (≈ 61.8 µM) | MIC [47]: > 64 µg/mL | MIC [48]: 32 µg/mL (≈ 61.8 µM) | MIC [49]: 64 µg/mL (≈ 124 µM) | MIC [13]: > 64 µg/mL | MIC [50]: 32 µg/mL (≈ 61.8 µM)
